Format in all cases: in vivo, human
In data set [1] the test system is patient with rapid mood swings and severe intense itching. The data set can be described thus: Case report: patient with rapid mood swings and severe intense itching. The following applies: Example 19. The procedure: A patient presented with rapid mood swings and a complaint of severe intense itching from clothing tags and some clothing, which began over twenty years ago. They were begun on gabapenten which was increased to 300 mg qid. […] Their itching was unchanged. They were begun on Topamax 12.5 mg at bedtime which was increased weekly by 12.5 mg until 50 mg.

The test system of data set [2] is patient suffering from rheumatoid arthritis. The data set can be described thus: Case reports: patients suffering from rheumatoid arthritis. The note with it: Example 17; before Topamax. The procedure: A patient suffering from rheumatoid arthritis was administered 25 mg per day of topiramate with an increase every 10 days by 25 mg until 25 mg, 3 times per day, was achieved. The patient previously took 3 or 4 tablets per day of lortab, seven 2.5 mg tablets of methotrexate once a week, 200 mg per day of minocycline and 10 mg per day of prednisone.
An adolescent patient suffering from rheumatoid arthritis began taking 15 mg per day of topiramate for one week, which was then increased by 15 mg weekly until 45 mg per day, in three divided dosages of 15 mg each, was reached. The patient previously took 3 to 5 mg of prednisone daily.
A patient suffering from rheumatoid arthritis with a positive rheumatic factor about 3 decades earlier, at which time they also experienced polyarthritis and Renaud's phenomena, was treated with prednisone 40 mg per day for six months and was then weaned off the prednisone after one year. In the ensuing years, psoriasis developed on both elbows which was worse in the winter. They were an avid golfer and experienced painful swelling and stiffness of both wrists and hands, especially the left, and back pain and stiffness. […] They were begun on Topamax 15 mg a day which was increased weekly by 15 mg until 45 mg per day was taken in divided doses.

Data set [3] has as its system patient suffering from multiple sclerosis. The data set can be described thus: Case reports: patients suffering from multiple sclerosis treated with topiramate. The following applies: Example 18; patient's own attempt. The procedure: A patient suffering from multiple sclerosis was administered 15 mg per day of topiramate. The dosage was increased after 15 days to 30 mg per day. At 15 mg, the patient's involuntary stretch rigid response stopped and the patient was able to get out of bed without falling backward when their feet touched the floor for the first time in nine years.
The patient previously took trazadone 100 mg at bedtime, clonazepan 1 mg three times a day, citalapram 40 mg each morning, gabapentrin 600 mg four times a day, and synthroid 25 mcg per day for two years. They had refused steroids and interferon because of side effects.
The Topamax was increased to 15 mg at bedtime and they reported “no bad bladder accidents” and that their leg and foot cramps had disappeared. […] They were discharged on Topamax 15 mg at bedtime along with previous medications. The patient was much improved medically and emotionally.
The patient returned four weeks later walking with a cane, having worked “10 to 14 hours per day and exhausted from my move with little sleep during the past month”. They reported “insatiable itching all over my body wherever my clothes touch the skin” which […] unsuccessfully tried to treat with cetirizine. […] said […] felt “dizzy, weak, Charlie horses in arches of feet and toes, unable to stand for more than 10 minutes before starting to have gait problems, problems sleeping, having trouble mentally and urine leaking”. […] working diagnoses are Axis I Bipolar disorder, not otherwise specified Axis III multiple sclerosis. […]

As to `NCC1(CC(=O)O)CCCCC1` [gabapenten], in data set [1] (300 mg qid), the mood entry is on record as “a little calmer”. In data set [1] (300 mg qid, in two weeks), the weight gained entry is recorded as “five”. For the same compound, the itching result in data set [1] (increased to 300 mg qid) is “unchanged”.

On to `COc1ccc2cc([C@H](C)C(=O)O)ccc2c1` [Naproxen], for which the “effect on painful swelling and stiffness” value in data set [2] is “ineffective”. In the case of `O=C(O)COCCN1CCN(C(c2ccccc2)c2ccc(Cl)cc2)CC1` (centres unmarked) [cetirizine], in data set [3], the treatment of itching entry is recorded as “unsuccessfully”.

These data come from patent US20030144347A1, “Method for treating autoimmune disease” (priority 2001, published 2003).
